Legend:
[1] = target: T1, OCT2 (Homo sapiens, UniProt O15244); experiment: Inhibition of OCT2-mediated oxaliplatin uptake in transfected MDCK-II cells (protein-free HBSS)
T1 sequence (O15244 1-555): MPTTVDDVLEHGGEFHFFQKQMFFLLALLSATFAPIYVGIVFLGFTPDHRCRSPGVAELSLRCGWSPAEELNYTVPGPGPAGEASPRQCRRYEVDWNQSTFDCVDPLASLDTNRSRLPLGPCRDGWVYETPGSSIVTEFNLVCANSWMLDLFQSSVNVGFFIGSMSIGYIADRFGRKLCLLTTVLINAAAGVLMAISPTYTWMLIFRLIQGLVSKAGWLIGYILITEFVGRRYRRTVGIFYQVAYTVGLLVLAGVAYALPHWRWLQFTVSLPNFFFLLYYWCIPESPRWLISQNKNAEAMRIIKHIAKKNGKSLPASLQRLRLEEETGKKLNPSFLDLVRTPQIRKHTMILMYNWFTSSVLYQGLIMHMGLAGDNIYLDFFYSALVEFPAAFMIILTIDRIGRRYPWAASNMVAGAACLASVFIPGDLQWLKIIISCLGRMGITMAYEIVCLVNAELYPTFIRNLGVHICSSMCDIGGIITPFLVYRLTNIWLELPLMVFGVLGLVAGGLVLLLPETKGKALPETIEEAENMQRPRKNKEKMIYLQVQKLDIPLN
Description: Fully confluent MDCK cell monolayers were transfected with either cDNA plasmids encoding the human transporter to be tested or a GFP control. […] The cells were then washed with ice-cold PBS and lysed with 50:50 acetonitrile:H2O. Intracellular content of the substrate was quantified by LC/MS/MS or a MicroBeta radiometric plate reader.

[2] = test system: Balb/c mice exposed to acute treatment with Oxaliplatin; experiment: Dynamic test (mechanical pain threshold) after a single oxaliplatin administration; assay type: in vivo, mouse; conditions: 24 hours after single OXA 3.5 mg/kg iv; DTG 4 mg/kg ip 1 hour before; CPC 4 mg/kg iv co-administered; listed as CPC
Method: OXA vehicle, OXA, CPC, DTG, DTG+OXA and CPC+OXA were administered once time. In the group co-administered with OXA and DTG. DTG was injected intraperitoneally 1 hour before the administration of OXA. In the group co-administered with OXA and CPC, CPC was co-administered with OXA intravenously. Mechanical allodynia and cold sensory threshold (dynamic test and cold plate test) were performed 24 and 48 hours after the treatment, respectively, using the methods described in EXAMPLE 15 Plasma Sample Collection

[3] = target: T1, OCT2

- fold less potent as inhibitor of OCT2-mediated metformin and oxaliplatin uptake than of ASP+ uptake ([1]; comparison of Table 1 potencies): more than 100 fold
- inhibition at 30 min, 5 μM ([1]; human): 28%
- inhibition at 30 min, 50 μM ([1]; human): 36%
- potency estimated from few doses at 30 min ([1]; human, IC50 (μM) (substrate Oxaliplatin)): 90.4 µM
- IC50 (μM) (substrate Metformin) [3]: no
SMILES: NC(=O)OCC(O)COc1ccc(Cl)cc1 (stereo not drawn) [Chlorphenesin Carbamate]
- Mechanical Pain Threshold (MPT), mechanical hypersensitivity [2]: no such effect
